One test relates to A549. The experiment in a line: Cytotoxicity against human A549 cells assessed as reduction in cell viability after 72 hrs by MTT assay. In kind it is functional, cell-based.
For the next test, the system named is HepG2. Briefly: Cytotoxicity against human HepG2 cells assessed as reduction in cell viability after 72 hrs by MTT assay. Format: functional, cell-based.
The next test deals with Vero. The experiment in a line: Cytotoxicity against African green monkey Vero cells assessed as reduction in cell viability after 72 hrs by MTT assay. In kind it is cell-based, Chlorocebus sabaeus.
The next test relates to MCF7. The experiment in a line: Cytotoxicity against human MCF7 cells assessed as reduction in cell viability after 72 hrs by MTT assay. Format: functional, cell-based.
A further test has as its system HeLa. The experiment in a line: Cytotoxicity against human HeLa cells assessed as reduction in cell viability after 72 hrs by MTT assay. Format: functional, cell-based.
For test [1], the system named is Staphylococcus aureus. Briefly: Antibacterial activity against methicillin-sensitive Staphylococcus aureus incubated for 6 to 8 hrs by MABA. The following applies: time 6-8 hrs. Format: functional.
Test [2] has as its system Staphylococcus aureus. The experiment in a line: Antibacterial activity against methicillin-resistant Staphylococcus aureus ATCC 6548 incubated for 6 to 8 hrs by MABA. In kind it is functional. To be noted: time 6-8 hrs.
For the next test, the system named is Enterococcus faecium. The experiment in a line: Antibacterial activity against vancomycin-sensitive Enterococcus faecium incubated for 6 to 8 hrs by MABA. Format: functional. The following applies: time 6-8 hrs.
The mark [3] stands for this setting: Chlorocebus sabaeus, Vero, 72 h.

Structures are written as SMILES. Several values for one entry are separate records, joined by “and”; a condition that tells them apart may be missing. Equal entries are not always repeated. Structures can show the parent of a compound that is named as a salt. Bounds are passed on as bounds.

Regarding `COc1cc2c(c(O)c1Cl)C(=O)c1c(cc3cc(O)cc(-c4c(O)cc(O)c(Cl)c4C)c3c1O)C2(C)C`, the IC50 in the test on A549 (Homo sapiens, A549, 72 h) amounted to 13.1 µM; in the test with HepG2 (Homo sapiens, HepG2, 72 h) it was 11.7 µM; in the test with Vero (setting [3]), 14.6 µM; in the test with MCF7 (Homo sapiens, MCF7, 72 h), 17.6 µM; in the test on HeLa (Homo sapiens, HeLa, 72 h), 15 µM.
For `COc1cc(C)c(-c2nc(C)cc3cc4c(c(O)c23)C(=O)c2c(cc(OC)c(Cl)c2OC)C4(C)C)c(OC)c1`, the IC50 in the test on A549 (Homo sapiens, A549, 72 h) amounted to 14.5 µM; with A549 (a549), 12.6 µM; in the test with HepG2 (Homo sapiens, HepG2, 72 h), 9.5 µM; with HepG2 (hepg2) it was 8.7 µM; in the test on Vero (setting [3]), 6.1 µM; in the test with Vero (vero), 10 µM. Besides, the IC50 with MCF7 (Homo sapiens, MCF7, 72 h) is 4.4 µM; in the test on MCF7 (mcf7) it was 8.7 µM; with HeLa (Homo sapiens, HeLa, 72 h) it was 3.4 µM; in the test on HeLa (hela) it was 3.3 µM. The MIC against Staphylococcus aureus [1], in the test on Staphylococcus aureus [2] and against Enterococcus faecium was over 10 µg/mL in each case.
Consider `COc1cc2c(c(O)c1Cl)C(=O)c1c(cc3c(Cl)c(O)cc(-c4c(C)c(Cl)c(O)c(Cl)c4O)c3c1O)C2(C)C`, for which the IC50 in the test on A549 (Homo sapiens, A549, 72 h) was determined as 7 µM; with HepG2 (Homo sapiens, HepG2, 72 h), 9.8 µM; in the test with Vero (setting [3]), 27.3 µM; in the test with MCF7 (Homo sapiens, MCF7, 72 h) it was 18.1 µM; with HeLa (Homo sapiens, HeLa, 72 h), 14.3 µM.
With `COc1cc(C)c(-c2cc(O)c(Cl)c3cc4c(c(O)c23)C(=O)c2c(cc(OC)c(Cl)c2O)C4(C)C)c(O)c1`, the IC50 was determined as 2.8 µM in the test on A549 (Homo sapiens, A549, 72 h); 3.2 µM with HepG2 (Homo sapiens, HepG2, 72 h); 9 µM in the test on Vero (setting [3]); 3.6 µM with MCF7 (Homo sapiens, MCF7, 72 h); 3.3 µM in the test with HeLa (Homo sapiens, HeLa, 72 h).
`COc1cc2c(c(O)c1Cl)C(=O)c1c(cc3cc(O)cc(-c4c(C)c(Cl)c(O)c(Cl)c4O)c3c1O)C2(C)C`: the IC50 in the test with A549 (Homo sapiens, A549, 72 h) was 4.6 µM; in the test with HepG2 (Homo sapiens, HepG2, 72 h), 4.5 µM; in the test on Vero (setting [3]) it was 12.5 µM; with MCF7 (Homo sapiens, MCF7, 72 h), 9.2 µM; with HeLa (Homo sapiens, HeLa, 72 h) it was 6.1 µM.
As for `COc1cc2c(c(O)c1Cl)C(=O)c1c(cc3c(Cl)c(O)cc(-c4c(O)cc(O)c(Cl)c4C)c3c1O)C2(C)C`, the IC50 in the test with A549 (Homo sapiens, A549, 72 h) turned out to be 3.1 µM; in the test on HepG2 (Homo sapiens, HepG2, 72 h), 5.3 µM; in the test with Vero (setting [3]), 14.6 µM; with MCF7 (Homo sapiens, MCF7, 72 h), 4.7 µM; in the test with HeLa (Homo sapiens, HeLa, 72 h) it was 4.7 µM.
`COc1cc2c(c(O)c1Cl)C(=O)c1c(cc3cc(O)cc(-c4c(C)c(Cl)c(O)c(Cl)c4OC)c3c1O)C2(C)C`: the IC50 in the test on A549 (Homo sapiens, A549, 72 h) amounted to 5.4 µM; in the test with HepG2 (Homo sapiens, HepG2, 72 h), 4.7 µM; in the test with Vero (setting [3]), 11.1 µM; in the test on MCF7 (Homo sapiens, MCF7, 72 h), 18.4 µM; with HeLa (Homo sapiens, HeLa, 72 h), 4.8 µM.
As for `COc1cc(O)c(-c2cc(O)cc3cc4c(c(O)c23)C(=O)c2c(cc(OC)c(Cl)c2O)C4(C)C)c(C)c1Cl`, the IC50 is 2.6 µM in the test with A549 (Homo sapiens, A549, 72 h); 3.7 µM in the test on HepG2 (Homo sapiens, HepG2, 72 h); 3.5 µM in the test with Vero (setting [3]); 3.1 µM in the test on MCF7 (Homo sapiens, MCF7, 72 h); 3.7 µM with HeLa (Homo sapiens, HeLa, 72 h).
Turning to `COc1cc(C)c(-c2nc(C)cc3cc4c(c(O)c23)C(=O)c2c(OC)cc(OC)cc2C4(C)C)c(OC)c1`, the IC50 in the test with A549 (Homo sapiens, A549, 72 h) is 5.1 µM; in the test on A549 (a549), 6.6 µM; in the test with HepG2 (Homo sapiens, HepG2, 72 h) it was 3.4 µM; in the test on HepG2 (hepg2), 3.8 µM; in the test with Vero (vero), 2.7 µM and 7.5 µM; in the test with MCF7 (Homo sapiens, MCF7, 72 h), 5.9 µM. Besides, the IC50 was found to be 11.2 µM with MCF7 (mcf7); 3.7 µM in the test with HeLa (Homo sapiens, HeLa, 72 h); 4.6 µM in the test on HeLa (hela). Further, the MIC with Staphylococcus aureus [1], against Staphylococcus aureus [2] and in the test on Enterococcus faecium was over 10 µg/mL each time.
Turning to `COc1cc(C)c(-c2cc(O)cc3cc4c(c(O)c23)C(=O)c2c(cc(OC)c(Cl)c2O)C4(C)C)c(O)c1`, the IC50 in the test on A549 (Homo sapiens, A549, 72 h) amounted to 3.4 µM; with HepG2 (Homo sapiens, HepG2, 72 h), 3.2 µM; with Vero (setting [3]), 3.3 µM; in the test on MCF7 (Homo sapiens, MCF7, 72 h), 3 µM; with HeLa (Homo sapiens, HeLa, 72 h), 2.9 µM.
Take `COc1cccc2c1C(=O)c1c(O)c3c(c(O)c1C2=O)C[C@@](O)(C(=O)CO)C[C@@H]3O[C@H]1C[C@H](N)[C@H](O)[C@H](C)O1` [DOXORUBICIN HYDROCHLORIDE]: the IC50 with A549 (Homo sapiens, A549, 72 h) came to 0.69 µM; with HepG2 (Homo sapiens, HepG2, 72 h), 0.8 µM; in the test on MCF7 (Homo sapiens, MCF7, 72 h), 1.02 µM; in the test with HeLa (Homo sapiens, HeLa, 72 h) it was 0.31 µM.

The values above are taken from ChEMBL document CHEMBL4811289, “Antibacterial and Cytotoxic Phenyltetracenoid Polyketides from Streptomyces morookaense” (J Nat Prod, 2021).
